Assay results: patent publication US6777425B2, “Isoquinoline compounds having antiinfective activity” (Genesoft Pharmaceuticals, Inc., priority 2001, dated 2004)

Assays:
S. pneumoniae ATCC 49619 = test: NCCLS broth microdilution MIC, S. pneumoniae ATCC 49619; format: cell-based, Streptococcus pneumoniae; settings: organism H = S. pneumoniae ATCC 49619
Text: (§1) Compounds according to this invention were screened for their in vitro activities against selected species of bacteria and fungi. […]

S. aureus ATCC 27660 = test: NCCLS broth microdilution MIC, S. aureus (MRSA); format: cell-based, Staphylococcus aureus; settings: organism F = S. aureus ATCC 27660 (MRSA)
Text: as §1

S. aureus ATCC 13709 = test: NCCLS broth microdilution MIC, S. aureus (MSSA); format: cell-based, Staphylococcus aureus; settings: organism E = S. aureus ATCC 13709 (MSSA)
Text: as §1

S. pneumoniae ATCC 51422 = test: NCCLS broth microdilution MIC, S. pneumoniae (PRSP); format: cell-based, Streptococcus pneumoniae; settings: organism I = S. pneumoniae ATCC 51422 (PRSP)
Text: as §1

[1] = tested on: S. epidermidis ATCC 12228; test: NCCLS broth microdilution MIC, S. epidermidis; format: cell-based, Staphylococcus epidermidis; settings: organism G = S. epidermidis ATCC 12228
Text: as §1

E. faecium ATCC 51559 = test: NCCLS broth microdilution MIC, E. faecium (VRE); format: cell-based, Enterococcus faecium; settings: organism D = E. faecium ATCC 51559 (VRE)
Text: as §1

E. faecalis ATCC 29212 = test: NCCLS broth microdilution MIC, E. faecalis; format: cell-based; settings: organism C = E. faecalis ATCC 29212
Text: as §1

B. cereus ATCC 11778 = test: NCCLS broth microdilution MIC, B. cereus; format: cell-based, Bacillus cereus; settings: organism A = B. cereus ATCC 11778
Text: as §1

C. albicans ATCC 38247 = test: Antifungal MIC, C. albicans; format: cell-based, Candida albicans; settings: organism B = C. albicans ATCC 38247
Text: as §1

[2] = Staphylococcus aureus, read-out: Minimum Inhibitory Concentration (MIC)

Row | SMILES | Minimum Inhibitory Concentration (MIC) (S. pneumoniae ATCC 49619) | Minimum Inhibitory Concentration (MIC) (S. aureus ATCC 27660) | Minimum Inhibitory Concentration (MIC) (S. aureus ATCC 13709) | Minimum Inhibitory Concentration (MIC) (S. pneumoniae ATCC 51422) | Minimum Inhibitory Concentration (MIC) [1] | Minimum Inhibitory Concentration (MIC) (E. faecium ATCC 51559) | Minimum Inhibitory Concentration (MIC) (E. faecalis ATCC 29212) | Minimum Inhibitory Concentration (MIC) (B. cereus ATCC 11778) | Minimum Inhibitory Concentration (MIC) (C. albicans ATCC 38247) | MIC (S. pneumoniae ATCC 49619; Streptococcus pneumoniae, ATCC49619, read-out: Minimum Inhibitory Concentration (MIC)) [µg/mL] | MIC (S. aureus ATCC 27660; [2]) [µg/mL] | MIC (S. aureus ATCC 13709; [2]) [µg/mL] | MIC (E. faecalis ATCC 29212; Enterococcus faecalis, ATCC29212, read-out: Minimum Inhibitory Concentration (MIC)) [µg/mL] | MIC (B. cereus ATCC 11778; Bacillus cereus, ATCC11778, read-out: Minimum Inhibitory Concentration (MIC)) [µg/mL] | MIC (C. albicans ATCC 38247; Candida albicans, ATCC38247, read-out: Minimum Inhibitory Concentration (MIC)) [µg/mL]
1 | Cn1cc(NC(=O)c2cc(NC(=O)c3cc(NC(=O)c4cc5ccccc5cn4)c[nH]3)cn2C)cc1C(=O)NCCN1CCOCC1 [Ib-50] | +++ (+++ = MIC ≦ 4) | +++ (+++ = MIC ≦ 4) | +++ (+++ = MIC ≦ 4) | +++ (+++ = MIC ≦ 4) | +++ (+++ = MIC ≦ 4) | +++ (+++ = MIC ≦ 4) | +++ (+++ = MIC ≦ 4) | +++ (+++ = MIC ≦ 4) | >32 µg/mL | – | – | – | – | – | –
2 | Cn1cc(NC(=O)c2cc(NC(=O)c3cc(NC(=O)c4cc5ccccc5cn4)cs3)cn2C)cc1C(=O)NCCN1CCOCC1 [Ib-51] | +++ (+++ = MIC ≦ 4) | +++ (+++ = MIC ≦ 4) | +++ (+++ = MIC ≦ 4) | + (+ = 12 ≦ MIC ≦ 32) | ++ (++ = 4 < MIC < 12) | ++ (++ = 4 < MIC < 12) | +++ (+++ = MIC ≦ 4) | +++ (+++ = MIC ≦ 4) | ++ (++ = 4 < MIC < 12) | – | – | – | – | – | –
3 | Cn1cc(NC(=O)c2cc3ccccc3cn2)cc1C(=O)Nc1cc(C(=O)Nc2cc(C(=O)NCCN3CCOCC3)ns2)n(C)c1 [Ib-52] | +++ (+++ = MIC ≦ 4) | +++ (+++ = MIC ≦ 4) | +++ (+++ = MIC ≦ 4) | +++ (+++ = MIC ≦ 4) | +++ (+++ = MIC ≦ 4) | +++ (+++ = MIC ≦ 4) | +++ (+++ = MIC ≦ 4) | +++ (+++ = MIC ≦ 4) | >32 µg/mL | – | – | – | – | – | –
4 | CCN(CC)CCNC(=O)c1cc(NC(=O)c2cc(NC(=O)c3cc(NC(=O)c4cc5ccccc5cn4)cn3C)c[nH]2)cn1C [Ib-89] | +++ (+++ = MIC ≦ 4) | +++ (+++ = MIC ≦ 4) | +++ (+++ = MIC ≦ 4) | – | – | – | +++ (+++ = MIC ≦ 4) | +++ (+++ = MIC ≦ 4) | + (+ = 12 ≦ MIC ≦ 32) | – | – | – | – | – | –
5 | Cn1cc(NC(=O)c2cc(NC(=O)c3cc4ccccc4cn3)cn2CCCN2CCCCC2)cc1C(=O)Nc1ccc2cnccc2c1 [Ib-90] | +++ (+++ = MIC ≦ 4) | +++ (+++ = MIC ≦ 4) | +++ (+++ = MIC ≦ 4) | – | – | – | +++ (+++ = MIC ≦ 4) | +++ (+++ = MIC ≦ 4) | + (+ = 12 ≦ MIC ≦ 32) | – | – | – | – | – | –
6 | Cn1cc(NC(=O)c2cc(NC(=O)c3cc4ccccc4cn3)cn2CCCN2CCCC2)cc1C(=O)Nc1ccc2cnccc2c1 [Ib-91] | +++ (+++ = MIC ≦ 4) | +++ (+++ = MIC ≦ 4) | +++ (+++ = MIC ≦ 4) | – | – | – | +++ (+++ = MIC ≦ 4) | +++ (+++ = MIC ≦ 4) | >32 µg/mL | – | – | – | – | – | –
7 | Cn1cc(NC(=O)c2cc(NC(=O)c3cc(NC(=O)c4cc5ccccc5cn4)cn3C)c[nH]2)cc1C(=O)NCCCNC1CCCCC1 [Ib-92] | +++ (+++ = MIC ≦ 4) | +++ (+++ = MIC ≦ 4) | +++ (+++ = MIC ≦ 4) | – | – | – | +++ (+++ = MIC ≦ 4) | +++ (+++ = MIC ≦ 4) | >32 µg/mL | – | – | – | – | – | –
8 | C[C@@H]1CCC[C@H](C)N1CCNC(=O)c1cc(NC(=O)c2ccc(NC(=O)c3cc(NC(=O)c4cc5ccccc5cn4)cn3C)cc2)cn1C [Ic-6] | +++ (+++ = MIC ≦ 4) | +++ (+++ = MIC ≦ 4) | +++ (+++ = MIC ≦ 4) | +++ (+++ = MIC ≦ 4) | – | – | +++ (+++ = MIC ≦ 4) | +++ (+++ = MIC ≦ 4) | >32 µg/mL | – | – | – | – | – | –
9 | Cn1cc(NC(=O)c2ccc(NC(=O)c3cc(NC(=O)c4cc5ccccc5cn4)cn3C)cc2)cc1C(=O)NCCN1CCC(O)CC1 [Ic-8] | +++ (+++ = MIC ≦ 4) | +++ (+++ = MIC ≦ 4) | +++ (+++ = MIC ≦ 4) | – | – | – | +++ (+++ = MIC ≦ 4) | +++ (+++ = MIC ≦ 4) | >32 µg/mL | – | – | – | – | – | –
10 | CCN(CC)CCNC(=O)c1cc(NC(=O)c2ccc(NC(=O)c3cc(NC(=O)c4cc5ccccc5cn4)cn3C)cc2)cn1C [Ic-9] | +++ (+++ = MIC ≦ 4) | +++ (+++ = MIC ≦ 4) | +++ (+++ = MIC ≦ 4) | – | – | – | +++ (+++ = MIC ≦ 4) | +++ (+++ = MIC ≦ 4) | >32 µg/mL | – | – | – | – | – | –
11 | Cn1cc(NC(=O)c2ccc(NC(=O)c3cc(NC(=O)c4cc5ccccc5cn4)cn3C)cc2)cc1C(=O)NCCN1CCCC1 [Ic-10] | +++ (+++ = MIC ≦ 4) | +++ (+++ = MIC ≦ 4) | +++ (+++ = MIC ≦ 4) | – | – | – | +++ (+++ = MIC ≦ 4) | +++ (+++ = MIC ≦ 4) | >32 µg/mL | – | – | – | – | – | –
12 | Cn1cc(NC(=O)c2ccc(NC(=O)c3cc(NC(=O)c4cc5ccccc5cn4)cn3C)cc2)cc1C(=O)NCCCN1CCOCC1 [Ic-11] | +++ (+++ = MIC ≦ 4) | +++ (+++ = MIC ≦ 4) | +++ (+++ = MIC ≦ 4) | – | – | – | +++ (+++ = MIC ≦ 4) | >32 µg/mL | >32 µg/mL | – | – | – | – | – | –
13 | CN1CCN(CCNC(=O)c2cc(NC(=O)c3ccc(NC(=O)c4cc(NC(=O)c5cc6ccccc6cn5)cn4C)cc3)cn2C)CC1 [Ic-14] | +++ (+++ = MIC ≦ 4) | +++ (+++ = MIC ≦ 4) | +++ (+++ = MIC ≦ 4) | – | – | – | >32 µg/mL | >32 µg/mL | >32 µg/mL | – | – | – | – | – | –
14 | CN(C)CCCNC(=O)c1cc(NC(=O)c2ccc(NC(=O)c3cc(NC(=O)c4cc5ccccc5cn4)cn3C)cc2)cn1C [Ic-15] | +++ (+++ = MIC ≦ 4) | +++ (+++ = MIC ≦ 4) | +++ (+++ = MIC ≦ 4) | – | – | – | >32 µg/mL | >32 µg/mL | >32 µg/mL | – | – | – | – | – | –
15 | CN(C)CCNC(=O)c1cc(NC(=O)c2ccc(NC(=O)c3cc(NC(=O)c4cc5ccccc5cn4)cn3C)cc2)cn1C [Ic-16] | +++ (+++ = MIC ≦ 4) | +++ (+++ = MIC ≦ 4) | +++ (+++ = MIC ≦ 4) | – | – | – | +++ (+++ = MIC ≦ 4) | +++ (+++ = MIC ≦ 4) | >32 µg/mL | – | – | – | – | – | –
16 | CC1CN(CCNC(=O)c2cc(NC(=O)c3ccc(NC(=O)c4cc(NC(=O)c5cc6ccccc6cn5)cn4C)cc3)cn2C)CC(C)O1 (stereo not shown) [Ic-17] | +++ (+++ = MIC ≦ 4) | +++ (+++ = MIC ≦ 4) | +++ (+++ = MIC ≦ 4) | – | – | – | +++ (+++ = MIC ≦ 4) | +++ (+++ = MIC ≦ 4) | >32 µg/mL | – | – | – | – | – | –
17 | CCN(CCO)CCNC(=O)c1cc(NC(=O)c2ccc(NC(=O)c3cc(NC(=O)c4cc5ccccc5cn4)cn3C)cc2)cn1C [Ic-18] | +++ (+++ = MIC ≦ 4) | +++ (+++ = MIC ≦ 4) | +++ (+++ = MIC ≦ 4) | – | – | – | +++ (+++ = MIC ≦ 4) | +++ (+++ = MIC ≦ 4) | >32 µg/mL | – | – | – | – | – | –
18 | Cn1cc(NC(=O)c2cc3ccccc3cn2)cc1C(=O)Nc1cc(C(=O)Nc2ccc3sc(C(=O)NCCN4CCOCC4)cc3c2)n(C)c1 [Id-1] | – | – | – | – | – | – | – | – | – | < 4 | < 4 | < 4 | < 4 | < 4 | > 32
